Measurements taken from patent publication US6743443B1, “Tablets immediately disintegrating in the oral cavity” (Eisai Co., Ltd., priority 1998, dated 2004).

Test: physchem
Conditions: 37 °C
Description: However, there has been no report yet for an intraoral quickly disintegrating tablet containing a slightly soluble pharmaceutical agent having an improved solubility as such and for a method of manufacturing the tablet. One of the reasons therefor is that it is difficult for satisfying all of the requirements for improving the solubility of the slightly soluble pharmaceutical agent, for a quick disintegration in the mouth and for ensuring a good touch on the tongue upon disintegration. Many of the pharmaceutical ingredients acting as a cyclic GMP phosphodiesterase inhibitor are the compounds having a relatively low solubility and are within a category of the slightly soluble pharmaceutical agents.

- solubility (pH 1.2, simulated gastric fluid): 130 µg/mL
- solubility (pH 6.8, aqueous buffer): 6.3 µg/mL
Compound: COc1ccc(CNc2nnc(N3CCC(O)CC3)c3ccc(C#N)cc23)cc1Cl.Cl [formula (IX), 4-(3-chloro-4-methoxybenzyl)amino-6-cyano-1-(4-hydroxypiperidino)phthalazine hydrochloride]
